# Data reported in patent US20250154123A1, “COOLING COMPOUNDS AND COMPOSITIONS” (V. MANE FILS, priority 2022, published 2025).
# Legend:
# hTRPM8 [1] = biological target: T1, hTRPM8 (Homo sapiens, UniProt Q7Z2W7); assay: EC50 measurement on hTRPM8 (response curve); assay type: cell-based; details: for EC50 on hTRPM8 compared with WS-3 and WS-5: Table 3; for EC50: hTRPM8, response curve
# T1 construct: expressed in transfected cells; host or cells: CHO-KJ cells [sic]
# Protocol: (§1) The compounds were evaluated in vitro on CHO-KJ cells expressing the gene encoding the hTRPM8 ion channel (Table 1). Channel activation is determined by fluorometric measurement of […] calcium using FLUO-8. The activity of the compounds was measured relative to icilin (known hTRPM8 agonist).
# A response curve was developed for compounds 1, 3, 5 and 37 which made it possible to determine the EC50 (half maximal effective concentration) values on hTRPM8 and compare them with the EC50 values of the comparative compounds (Table 3).
# [2] = Organoleptic evaluation in still water by a trained panel (cooling intensity over time); assay type: in vivo, human
# Text: Inventive compounds 1, 2 and 5 were organoleptically evaluated in still water by a trained panel. […] […] These inventive compounds appear to behave similarly to the comparative compounds.
# [3] = Chewing gum evaluation protocol, cooling intensity rated 0-10 by 6 trained panelists over 10 min; assay type: in vivo, human; details: 0.20 wt % in chewing gum, chewed 10 min, 6 panelists
# Protocol: An unflavored chewing gum paste was prepared using the following formulation: Sorbitol (52.4 wt %), gum base (30.0 wt %), maltitol syrup (7.0 wt %), glycerine (5.0 wt %), mannitol (5.0 wt %), soy lecithin (0.4 wt %), acesulfame-K (0.1 wt %), and aspartame (0.1 wt %). The paste was warmed 1-2 min using a micro-wave to soften the mixture. After adding the cooling agent (0.20 wt % Compound 1), the paste was kneaded to homogenise the product. Then the paste is stretched using a sheeter, flatted at 2 mm thick, and cut in regular rectangular pieces (12×42 mm). Chewing-gums pieces are packed in plastic bag and put 1 week at room temperature to let them stabilise. Comparative chewing gum samples (A-C) were also prepared using 0.26 wt % PHYSCOOL™; 0.21 wt % WS-3™; and 0.17 wt % WS-23™, respectively.
# A chewing gum evaluation protocol was performed by 6 trained panelists, where the chewing gum was chewed for 10 min while holding the panelist's mouth closed. The cooling intensity was rated from 0 (not perceived) to 10 (very intense) at 5 sec, 15 sec, 30 sec, 45 sec, 1 min, 1.5 min, 2 min, and then every minute until 10 minutes.
# hTRPM8 [4] = biological target: T1, hTRPM8; assay: Secondary in vitro screening on hTRPM8 at 5 μM versus WS-3; assay type: cell-based; details: WS3 as reference compound
# Protocol: as §1
# The compounds 1 to 40 were tested on hTRPM8 at 5 μM using WS3 as the reference compound (Table 2).
# hTRPM8 ion channel = biological target: T2, hTRPM8 ion channel (Homo sapiens, UniProt Q7Z2W7); assay: Primary in vitro screening on hTRPM8 (CHO-KJ cells, FLUO-8 calcium fluorometry, relative to icilin); assay type: cell-based; details: for % activation vs iciline: CHO-KJ cells expressing hTRPM8; for activation on hTRPM8 compared with comparative molecules (Physcool, WS-5, WS-3, l-isopulegol, l-menthol, menthyl lactate): primary screening, Table 1
# T2 construct: expressed in transfected cells; host or cells: CHO-KJ cells [sic]
# T2 sequence (Q7Z2W7 whole entry): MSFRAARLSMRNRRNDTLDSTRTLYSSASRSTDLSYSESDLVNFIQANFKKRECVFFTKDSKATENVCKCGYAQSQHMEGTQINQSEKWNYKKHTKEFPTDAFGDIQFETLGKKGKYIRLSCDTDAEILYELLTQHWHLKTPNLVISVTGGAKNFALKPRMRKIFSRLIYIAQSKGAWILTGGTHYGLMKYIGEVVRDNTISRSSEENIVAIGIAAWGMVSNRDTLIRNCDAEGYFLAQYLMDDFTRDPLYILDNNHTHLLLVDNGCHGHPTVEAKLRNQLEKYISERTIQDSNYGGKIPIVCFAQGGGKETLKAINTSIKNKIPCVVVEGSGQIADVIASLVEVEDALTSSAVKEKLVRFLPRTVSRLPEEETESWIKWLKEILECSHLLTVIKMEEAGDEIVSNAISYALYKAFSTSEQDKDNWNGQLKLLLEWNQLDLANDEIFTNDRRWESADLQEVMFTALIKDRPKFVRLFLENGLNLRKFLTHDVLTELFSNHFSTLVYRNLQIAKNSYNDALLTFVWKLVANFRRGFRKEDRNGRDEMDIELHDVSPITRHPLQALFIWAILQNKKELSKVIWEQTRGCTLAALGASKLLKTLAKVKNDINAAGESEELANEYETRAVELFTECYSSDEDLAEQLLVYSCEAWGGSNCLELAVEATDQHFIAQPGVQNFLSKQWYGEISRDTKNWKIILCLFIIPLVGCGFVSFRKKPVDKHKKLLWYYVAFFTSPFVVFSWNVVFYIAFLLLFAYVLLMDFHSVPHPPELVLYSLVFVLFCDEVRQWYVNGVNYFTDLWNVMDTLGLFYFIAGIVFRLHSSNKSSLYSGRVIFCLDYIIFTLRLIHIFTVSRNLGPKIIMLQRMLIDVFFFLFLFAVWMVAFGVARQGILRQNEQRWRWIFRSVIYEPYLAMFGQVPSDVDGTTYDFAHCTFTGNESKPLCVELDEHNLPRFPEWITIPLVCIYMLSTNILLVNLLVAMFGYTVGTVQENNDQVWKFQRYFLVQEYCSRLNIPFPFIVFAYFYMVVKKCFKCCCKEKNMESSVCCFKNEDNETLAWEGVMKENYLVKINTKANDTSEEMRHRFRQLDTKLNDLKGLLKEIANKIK
# Protocol: as §1
# T1 sequence (Q7Z2W7 whole entry): as above
Structure (SMILES),EC50 (hTRPM8 [1]) [µM],activation at 5 µM (hTRPM8 [4]) [%],"activation on hTRPM8 compared with comparative molecules (Physcool, WS-5, WS-3, l-isopulegol, l-menthol, menthyl lactate) (hTRPM8 ion channel)",further results
"CC(C)[C@@H]1CC[C@@H](C)CC1(CO)CO [Compound 1, ((2S,5R)-2-isopropyl-5-methylcyclohexane-1,1-diyl)dimethanol]",4.6,99,greater activations than the comparative molecules,"EC50 on hTRPM8 compared with WS-3 and WS-5 (hTRPM8 [1]): EC50 values lower than WS-3™ and similar to WS-5™; cooling effect versus Physcool ([2]; equimolar, larger panel, over 10 min, FIG. 3): persistent cooling effect similar to Physcool® but with a greater intensity; freshness in the mouth ([2]; still water, trained panel): freshness in the mouth with both an attack and a good persistence; duration of cooling intensity in chewing gum, similar to WS-3 (0.21 wt %) and WS-23 (0.17 wt %) [3]: long cooling intensity out to 10 minutes; cooling intensity and duration in chewing gum versus Comparative Sample A (0.26 wt % PHYSCOOL) ([3]; average): more initial cooling intensity and longer lasting duration than Comparative Sample A; % activation vs iciline (hTRPM8 ion channel; concentration 156 μM): 199%"
"CC1OCC2(CO1)C[C@H](C)CC[C@H]2C(C)C (stereo partly drawn) [Compound 2, (7S,1OR)-7-isopropyl-3,10-dimethyl-2,4-dioxaspiro[5.5]undecane]",,3,,% activation vs iciline (hTRPM8 ion channel; concentration 109 μM): 26%
"CC(C)[C@@H]1CC[C@@H](C)CC12COC(C)(C)OC2 [Compound 3, (7S,1OR)-7-isopropyl-3,3,10-trimethyl-2,4-dioxaspiro[5.5]undecane]",2.5,94,greater activations than the comparative molecules,EC50 on hTRPM8 compared with WS-3 and WS-5 (hTRPM8 [1]): EC50 values lower than WS-3™ and similar to WS-5™; % activation vs iciline (hTRPM8 ion channel; concentration 104 μM): 99%
"CCC1OCC2(CO1)C[C@H](C)CC[C@H]2C(C)C (stereo partly drawn) [Compound 4, (7S,1OR)-3-ethyl-7-isopropyl-10-methyl-2,4-dioxaspiro[5.5]undecane]",,-1,,% activation vs iciline (hTRPM8 ion channel; concentration 101 μM): 39%
"COc1cc(C2OCC3(CO2)C[C@H](C)CC[C@H]3C(C)C)ccc1O (stereo partly drawn) [Compound 5, 4-((7S,10R)-7-isopropyl-10-methyl-2,4-dioxaspiro[5.5]undecan-3-yl)-2-methoxyphenol]",39,16,greater activations than the comparative molecules,% activation vs iciline (hTRPM8 ion channel; concentration 96 μM): 176%
"CC(C)[C@@H]1CC[C@@H](C)CC12COCOC2 [Compound 6, (7S,1OR)-7-isopropyl-10-methyl-2,4-dioxaspiro[5.5]undecane]",,3,,% activation vs iciline (hTRPM8 ion channel; concentration 104 μM): 32%
"CC(C)[C@@H]1CC[C@@H](C)C[C@H]1C(CO)CO [Compound 37, 2-((1R,2S,5R)-2-isopropyl-5-methylcyclohexyl)propane-1,3-diol]",70,65,,
"CCNC(=O)C1CC(C)CCC1C(C)C (stereo not drawn) [WS-3 ™, reference compound]",8,,,% activation vs iciline (hTRPM8 ion channel; concentration 119 μM): 76%
"CCOC(=O)CNC(=O)[C@@H]1C[C@H](C)CC[C@H]1C(C)C [WS-5 ™, reference compound]",1,,,% activation vs iciline (hTRPM8 ion channel): 73%
